Our source for the IC50 values is patent US9802941B2, “Compounds and methods for inhibiting histone demethylases” (Gilead Sciences, Inc., priority 2014, dated 2017).

What all share (format): biochemical
One test has as its target T1, KDM4C (JMJD2C) (Homo sapiens, UniProt Q9H3R0).
T1 construct: KDM4C; BRIC, Denmark; 1-349; E. coli; host or cells: E. coli
T1 sequence (Q9H3R0 1-349): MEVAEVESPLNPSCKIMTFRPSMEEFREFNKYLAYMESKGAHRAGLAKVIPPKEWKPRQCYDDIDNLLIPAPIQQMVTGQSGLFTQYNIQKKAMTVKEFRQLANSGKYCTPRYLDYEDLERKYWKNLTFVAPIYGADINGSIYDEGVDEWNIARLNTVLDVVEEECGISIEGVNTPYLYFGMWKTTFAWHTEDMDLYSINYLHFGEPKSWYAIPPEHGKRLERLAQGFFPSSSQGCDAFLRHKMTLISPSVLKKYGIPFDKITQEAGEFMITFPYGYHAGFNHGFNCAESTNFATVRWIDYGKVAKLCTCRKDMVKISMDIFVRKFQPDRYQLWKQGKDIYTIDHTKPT
As to the kind of experiment: Histone lysine demethylase AlphaLISA assay, KDM4C. The method, boiled down: (§1)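 In vitro demethylase inhibition measured by AlphaLISA. Enzymes preincubated with compound 10 minutes in 50 mM Hepes (pH 7.4-8.0), 0.003-0.01% Tween-20, 0.1% BSA, 5 μM (NH4)2Fe(SO4)2 before substrate addition at room temperature.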

The target of another test is T2, KDM2B (FBXL10) (Homo sapiens, UniProt Q8NHM5).
T2 construct: KDM2B; BPS,; 1-650; Bac; purchased BPS Bioscience, US; host or cells: baculovirus system
T2 sequence (Q8NHM5 1-650): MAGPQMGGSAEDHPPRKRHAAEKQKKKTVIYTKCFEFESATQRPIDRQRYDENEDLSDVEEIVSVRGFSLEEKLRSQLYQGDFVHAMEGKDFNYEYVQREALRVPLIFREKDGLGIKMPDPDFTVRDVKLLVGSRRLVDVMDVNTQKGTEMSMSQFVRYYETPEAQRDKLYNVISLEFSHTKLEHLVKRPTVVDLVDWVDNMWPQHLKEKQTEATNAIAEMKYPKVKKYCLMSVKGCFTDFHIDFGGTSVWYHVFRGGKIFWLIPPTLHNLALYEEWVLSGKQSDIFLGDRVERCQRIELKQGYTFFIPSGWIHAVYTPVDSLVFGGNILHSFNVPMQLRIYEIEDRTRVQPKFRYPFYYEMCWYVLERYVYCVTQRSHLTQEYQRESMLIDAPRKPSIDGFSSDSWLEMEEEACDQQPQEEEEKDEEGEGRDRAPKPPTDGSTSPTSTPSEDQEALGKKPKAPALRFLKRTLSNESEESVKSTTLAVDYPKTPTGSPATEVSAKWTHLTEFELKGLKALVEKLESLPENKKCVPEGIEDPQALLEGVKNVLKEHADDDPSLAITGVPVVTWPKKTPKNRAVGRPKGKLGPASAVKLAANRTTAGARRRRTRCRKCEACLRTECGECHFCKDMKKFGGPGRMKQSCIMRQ
As to the kind of experiment: Histone lysine demethylase AlphaLISA assay, KDM2B. The following applies: AlphaLISA, in vitro; read-out: HDME Inhibition KDM2B. The method, boiled down: as §1
A general note: Bead proximity is the source of the signal in Alpha formats.

A further test deals with T3, PHF8 (KDM7) (Homo sapiens, UniProt Q9UPP1).
T3 construct: KDM7 (PHF8); BRIC; 1-1322; Bac
As to the kind of experiment: Histone lysine demethylase AlphaLISA assay, PHF8. The method, boiled down: as §1

Another test addresses T4, KDM6A (UTX) (Homo sapiens, UniProt O15550).
T4 construct: KDM6A (UTX); BRIC; 919-1401; E. coli; host or cells: E. coli
As to the kind of experiment: Histone lysine demethylase AlphaLISA assay, KDM6A. The method, boiled down: as §1

A further test deals with T5, KDM5B (PLU-1) (Homo sapiens, UniProt Q9UGL1).
T5 construct: BRIC; 1-809; E. coli; host or cells: E. coli
T5 sequence (Q9UGL1 1-809): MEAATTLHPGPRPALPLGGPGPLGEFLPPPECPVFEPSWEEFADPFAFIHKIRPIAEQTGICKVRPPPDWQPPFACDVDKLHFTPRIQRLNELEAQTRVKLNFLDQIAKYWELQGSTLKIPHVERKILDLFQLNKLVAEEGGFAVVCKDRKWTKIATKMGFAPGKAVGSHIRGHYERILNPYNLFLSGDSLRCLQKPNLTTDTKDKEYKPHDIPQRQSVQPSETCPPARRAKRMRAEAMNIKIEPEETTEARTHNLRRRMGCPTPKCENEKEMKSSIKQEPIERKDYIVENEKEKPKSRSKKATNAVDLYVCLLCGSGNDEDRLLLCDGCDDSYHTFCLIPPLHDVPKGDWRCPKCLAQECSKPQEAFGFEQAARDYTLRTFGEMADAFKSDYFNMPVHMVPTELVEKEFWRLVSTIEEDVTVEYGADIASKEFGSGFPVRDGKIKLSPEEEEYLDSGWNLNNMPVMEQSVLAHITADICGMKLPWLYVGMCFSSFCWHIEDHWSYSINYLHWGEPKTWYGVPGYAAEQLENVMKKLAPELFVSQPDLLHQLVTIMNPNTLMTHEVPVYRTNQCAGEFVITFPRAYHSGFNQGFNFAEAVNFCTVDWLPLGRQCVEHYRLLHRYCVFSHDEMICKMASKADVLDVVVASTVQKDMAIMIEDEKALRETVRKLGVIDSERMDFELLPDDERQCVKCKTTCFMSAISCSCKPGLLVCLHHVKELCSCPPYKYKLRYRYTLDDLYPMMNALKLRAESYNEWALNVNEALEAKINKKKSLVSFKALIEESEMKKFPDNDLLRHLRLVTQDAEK
As to the kind of experiment: Histone lysine demethylase AlphaLISA assay, KDM5B. A digest of the protocol:
as §1

Setting [1] is: AlphaLISA assay, read-out: HDME Inhibition KDM4C (IC50).
Where [2] appears, read: AlphaLISA, in vitro, read-out: HDME Inhibition KDM4C.
Setting [3] is: AlphaLISA assay, read-out: HDME Inhibition PHF8 (IC50).
Setting [4] is: AlphaLISA, in vitro, read-out: HDME Inhibition PHF8.
Setting [5] is: AlphaLISA assay, read-out: HDME Inhibition KDM6A (IC50).
Where [6] appears, read: AlphaLISA, in vitro, read-out: HDME Inhibition KDM6A.
[7] abbreviates: AlphaLISA assay, read-out: HDME Inhibition KDM5B (IC50).
The mark [8] stands for this setting: AlphaLISA, in vitro, read-out: HDME Inhibition KDM5B.

Read-outs that look alike come from different tables or passages of the source.

T3 sequence (Q9UPP1 37-440 limits assumed): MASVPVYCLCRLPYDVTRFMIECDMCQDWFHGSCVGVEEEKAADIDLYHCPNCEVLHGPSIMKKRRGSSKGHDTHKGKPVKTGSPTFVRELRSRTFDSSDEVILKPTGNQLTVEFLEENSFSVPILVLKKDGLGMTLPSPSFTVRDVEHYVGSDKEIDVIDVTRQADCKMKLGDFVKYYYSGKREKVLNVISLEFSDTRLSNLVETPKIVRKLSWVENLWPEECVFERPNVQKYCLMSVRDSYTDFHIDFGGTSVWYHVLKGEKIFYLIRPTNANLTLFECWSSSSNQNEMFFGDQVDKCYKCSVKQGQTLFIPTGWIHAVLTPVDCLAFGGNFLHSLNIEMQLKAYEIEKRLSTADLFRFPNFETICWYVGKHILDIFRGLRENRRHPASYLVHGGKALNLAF
T4 sequence (O15550 919-1401): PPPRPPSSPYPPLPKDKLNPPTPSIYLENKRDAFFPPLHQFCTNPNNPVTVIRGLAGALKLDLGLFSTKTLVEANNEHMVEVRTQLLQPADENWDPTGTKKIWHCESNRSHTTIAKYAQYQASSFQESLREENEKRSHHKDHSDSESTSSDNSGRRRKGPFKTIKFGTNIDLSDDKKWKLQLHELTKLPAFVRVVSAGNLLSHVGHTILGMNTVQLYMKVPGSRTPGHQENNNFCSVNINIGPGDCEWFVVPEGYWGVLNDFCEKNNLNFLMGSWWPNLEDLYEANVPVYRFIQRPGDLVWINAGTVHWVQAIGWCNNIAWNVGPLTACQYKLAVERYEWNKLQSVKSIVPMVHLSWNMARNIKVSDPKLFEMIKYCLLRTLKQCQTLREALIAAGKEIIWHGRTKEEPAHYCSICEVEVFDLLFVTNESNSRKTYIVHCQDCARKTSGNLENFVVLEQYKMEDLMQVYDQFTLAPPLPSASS

As to `Cc1cc(C(=O)O)cc(CNCc2ncc(CCCc3ccccc3)n2Cc2ccc(F)cc2)n1` [Compound 31, 2-{[({1-[(4-fluorophenyl)methyl]-5-(3-phenylpropyl)-1H-imidazol-2-yl}methyl)amino]methyl}-6-methylpyridine-4-carboxylic acid], the IC50 at KDM4C (JMJD2C) (setting [1]) is more than 10 µM; at KDM4C (JMJD2C) (setting [2]), more than 10 µM; on KDM2B (FBXL10), 3.97 µM; on PHF8 (KDM7) (setting [3]), more than 10 µM; on PHF8 (KDM7) (setting [4]), more than 10 µM; at KDM6A (UTX) (setting [5]), more than 10 µM. The IC50 on KDM6A (UTX) (setting [6]), at KDM5B (PLU-1) (setting [7]) and at KDM5B (PLU-1) (setting [8]) was more than 10 µM throughout.
Take `Cc1cc(C(=O)O)cc(CNCCc2ncccc2-c2ccsc2)n1` [Compound 34, 2-methyl-6-[({2-[3-(thiophen-3-yl)pyridin-2-yl]ethyl}amino)methyl]pyridine-4-carboxylic acid]: the IC50 is more than 10 µM at KDM4C (JMJD2C) (setting [1]); more than 10 µM on KDM4C (JMJD2C) (setting [2]); 1.24 µM at KDM2B (FBXL10); more than 10 µM at PHF8 (KDM7) (setting [3]); more than 10 µM at PHF8 (KDM7) (setting [4]); more than 10 µM on KDM6A (UTX) (setting [5]). Moreover, the IC50 at KDM6A (UTX) (setting [6]), on KDM5B (PLU-1) (setting [7]) and at KDM5B (PLU-1) (setting [8]) was more than 10 µM in each case.
Take `C/C=C\c1cnc(CNCc2cc(C(=O)O)cc(C)n2)n1Cc1ccc(F)cc1` [Compound 35, 2-{[({1-[(4-fluorophenyl)methyl]-5-[(1Z)-prop-1-en-1-yl]-1H-imidazol-2-yl}methyl)amino]methyl}-6-methylpyridine-4-carboxylic acid]: the IC50 on KDM4C (JMJD2C) (setting [1]) is more than 10 µM; on KDM4C (JMJD2C) (setting [2]), more than 10 µM; at KDM2B (FBXL10), 0.117 µM; at PHF8 (KDM7) (setting [4]) it was 0.437 µM; at KDM6A (UTX) (setting [5]), more than 10 µM; on KDM6A (UTX) (setting [6]), more than 10 µM. The IC50 on KDM5B (PLU-1) (setting [7]) and at KDM5B (PLU-1) (setting [8]) was more than 10 µM each time.
Consider `CSc1nnc(CNCc2cc(C(=O)O)cc(C)n2)n1Cc1ccc(F)cc1` [Compound 36, 2-{[({4-[(4-fluorophenyl)methyl]-5-(methylsulfanyl)-4H-1,2,4-triazol-3-yl}methyl)amino]methyl}-6-methylpyridine-4-carboxylic acid], for which the IC50 at KDM4C (JMJD2C) (setting [1]) was more than 10 µM; at KDM4C (JMJD2C) (setting [2]), more than 10 µM; at KDM2B (FBXL10), 0.248 µM; on PHF8 (KDM7) (setting [4]), 0.908 µM; at KDM6A (UTX) (setting [5]) it was more than 10 µM; at KDM6A (UTX) (setting [6]), more than 10 µM. Moreover, the IC50 at KDM5B (PLU-1) (setting [7]) and at KDM5B (PLU-1) (setting [8]) was more than 10 µM throughout.
In the case of `Cc1cc(C(=O)O)cc(CNCc2nnc(C)n2Cc2ccc(F)cc2)n1` [Compound 37, 2-{[({4-[(4-Fluorophenyl)methyl]-5-methyl-4H-1,2,4-triazol-3-yl}methyl)amino]methyl}-6-methylpyridine-4-carboxylic acid], the IC50 on KDM4C (JMJD2C) (setting [1]) was more than 10 µM; at KDM4C (JMJD2C) (setting [2]) it was more than 10 µM; on KDM2B (FBXL10), 0.297 µM; on PHF8 (KDM7) (setting [4]), 0.489 µM; on KDM6A (UTX) (setting [5]) it was more than 10 µM; at KDM6A (UTX) (setting [6]) it was more than 10 µM. The IC50 at KDM5B (PLU-1) (setting [7]) and on KDM5B (PLU-1) (setting [8]) was more than 10 µM each time.
With `Cc1cc(C(=O)O)cc(CNCc2nnc(C3CC3)n2Cc2ccc(F)cc2)n1` [Compound 38, 2-{[({5-cyclopropyl-4-[(4-fluorophenyl)methyl]-4H-1,2,4-triazol-3-yl}methyl)amino]methyl}-6-methylpyridine-4-carboxylic acid], the IC50 on KDM4C (JMJD2C) (setting [1]) is more than 10 µM; on KDM4C (JMJD2C) (setting [2]) it was more than 10 µM; on KDM2B (FBXL10), 2.29 µM; on PHF8 (KDM7) (setting [3]), more than 10 µM; at PHF8 (KDM7) (setting [4]), more than 10 µM; at KDM6A (UTX) (setting [5]) it was more than 10 µM. In addition, the IC50 on KDM6A (UTX) (setting [6]) was more than 10 µM; at KDM5B (PLU-1) it was 4.62 µM.
As for `Cc1cc(C(=O)O)cc(CNCc2ncc(C3CCC3)n2Cc2ccc(F)cc2)n1` [Compound 39, 2-{[({5-cyclobutyl-1-[(4-fluorophenyl)methyl]-1H-imidazol-2-yl}methyl)amino]methyl}-6-methyl pyridine-4-carboxylic acid], the IC50 on KDM4C (JMJD2C) (setting [1]) was more than 10 µM; at KDM4C (JMJD2C) (setting [2]), more than 10 µM; at KDM2B (FBXL10), 0.155 µM; at PHF8 (KDM7) (setting [4]) it was 0.472 µM; at KDM6A (UTX) (setting [5]) it was more than 10 µM; at KDM6A (UTX) (setting [6]), more than 10 µM. Moreover, the IC50 on KDM5B (PLU-1) (setting [7]) and at KDM5B (PLU-1) (setting [8]) was more than 10 µM in each case.
As for `Cc1cc(C(=O)O)cc(CNCc2nnc(Cc3cccs3)n2Cc2ccc(F)cc2)n1` [Compound 40, 2-{[({4-[(4-fluorophenyl)methyl]-5-(thiophen-2-ylmethyl)-4H-1,2,4-triazol-3-yl}methyl)amino]methyl}-6-methylpyridine-4-carboxylic acid], the IC50 at KDM4C (JMJD2C) (setting [1]) was more than 10 µM; on KDM4C (JMJD2C) (setting [2]) it was more than 10 µM; on KDM2B (FBXL10), 0.599 µM; on PHF8 (KDM7) (setting [4]), 1.53 µM; on KDM6A (UTX) (setting [5]), more than 10 µM; at KDM6A (UTX) (setting [6]), more than 10 µM. In addition, the IC50 at KDM5B (PLU-1) (setting [7]) and at KDM5B (PLU-1) (setting [8]) was more than 10 µM in each case.
